± gives the expanded uncertainty stated by the source.
How the values were obtained:
[1] = Crystal; DTA
[2] = Molar enthalpy of transition or fusion; settings: Crystal; DSC

Normal melting temperature [1]: 170.52 ± 1.1 °C | Molar enthalpy of transition or fusion [2]: 41.9 ± 1.1 kJ/mol
SMILES: Cc1nc2n(c(=O)c1CCN1CCC(c3noc4cc(F)ccc34)CC1)CCCC2 [risperidone]

From the NIST ThermoML archive (doi:10.1016/j.tca.2013.06.032)
